Columns and labels:
Plasma = test: Anticoagulant activity in human platelet rich plasma assessed as plasma concentration required for 50% increase in clotting time by aPTT assay; type: functional
Coagulation factor XI = Coagulation factor XI (Homo sapiens, UniProt P03951); test: Inhibition of human Factor XIa using S-2366 as chromogenic substrate after 60 mins by Lineweaver-Burk plot analysis
[1] = Permeability of the compound from apical to basolateral side in human Caco2 cells; type: ADME, cell-based; settings: Caco-2, read-out: permeability
[2] = Permeability of the compound from basolateral to apical side in human Caco2 cells; type: ADME, cell-based; settings: Caco-2, read-out: permeability
[3] = Half life in human liver microsomes; type: ADME, microsome
[4] = Half life in Sprague-Dawley rat at 0.55 mg/kg, iv or 1.09 mg/kg, po administered as cassette dose by LC-MS/MS analysis; type: ADME, organism-based; settings: in vivo
[5] = Clearance in Sprague-Dawley rat at 0.55 mg/kg, iv or 1.09 mg/kg, po administered as cassette dose by LC-MS/MS analysis; type: ADME, organism-based; settings: in vivo
[6] = Oral bioavailability in Sprague-Dawley rat at 1.09 mg/kg administered as cassette dose by LC-MS/MS analysis; type: ADME, organism-based; settings: in vivo
[7] = Volume of distribution at steady state in Sprague-Dawley rat at 0.55 mg/kg, iv or 1.09 mg/kg, po administered as cassette dose by LC-MS/MS analysis; type: ADME, organism-based; settings: in vivo, read-out: Vdss
[8] = AUC in Sprague-Dawley rat at 0.55 mg/kg, iv or 1.09 mg/kg, po by LC-MS/MS analysis; type: ADME, organism-based; settings: in vivo
[9] = AUC in Sprague-Dawley rat at 0.75 mg/kg, iv or 1.5 mg/kg, po by LC-MS/MS analysis; type: ADME, organism-based; settings: in vivo
[10] = Clearance in Sprague-Dawley rat at 0.75 mg/kg, iv or 1.5 mg/kg, po administered as cassette dose by LC-MS/MS analysis; type: ADME, organism-based; settings: in vivo
[11] = Volume of distribution at steady state in Sprague-Dawley rat at 0.75 mg/kg, iv or 1.5 mg/kg, po administered as cassette dose by LC-MS/MS analysis; type: ADME, organism-based; settings: in vivo, read-out: Vdss
[12] = Oral bioavailability in Sprague-Dawley rat at 1.5 mg/kg by LC-MS/MS analysis; type: ADME, organism-based; settings: in vivo
[13] = Half life in Sprague-Dawley rat at 0.75 mg/kg, iv or 1.5 mg/kg, po administered as cassette dose by LC-MS/MS analysis; type: ADME, organism-based; settings: in vivo
[14] = Protein binding in human plasma; type: ADME, cell-free; settings: read-out: PPB (converted)
[15] = Half life in Sprague-Dawley rat at 0.55 mg/kg, iv or 1.11 mg/kg, po administered as cassette dose by LC-MS/MS analysis; type: ADME, organism-based; settings: in vivo
[16] = Volume of distribution at steady state in Sprague-Dawley rat at 0.55 mg/kg, iv or 1.11 mg/kg, po administered as cassette dose by LC-MS/MS analysis; type: ADME, organism-based; settings: in vivo, read-out: Vdss
[17] = Clearance in Sprague-Dawley rat at 0.55 mg/kg, iv or 1.11 mg/kg, po administered as cassette dose by LC-MS/MS analysis; type: ADME, organism-based; settings: in vivo
[18] = Oral bioavailability in Sprague-Dawley rat at 1.11 mg/kg by LC-MS/MS analysis; type: ADME, organism-based; settings: in vivo
[19] = AUC in Sprague-Dawley rat at 0.55 mg/kg, iv or 1.11 mg/kg, po by LC-MS/MS analysis; type: ADME, organism-based; settings: in vivo

Coagulation factor XI, sequence (P03951 19-387 limits assumed): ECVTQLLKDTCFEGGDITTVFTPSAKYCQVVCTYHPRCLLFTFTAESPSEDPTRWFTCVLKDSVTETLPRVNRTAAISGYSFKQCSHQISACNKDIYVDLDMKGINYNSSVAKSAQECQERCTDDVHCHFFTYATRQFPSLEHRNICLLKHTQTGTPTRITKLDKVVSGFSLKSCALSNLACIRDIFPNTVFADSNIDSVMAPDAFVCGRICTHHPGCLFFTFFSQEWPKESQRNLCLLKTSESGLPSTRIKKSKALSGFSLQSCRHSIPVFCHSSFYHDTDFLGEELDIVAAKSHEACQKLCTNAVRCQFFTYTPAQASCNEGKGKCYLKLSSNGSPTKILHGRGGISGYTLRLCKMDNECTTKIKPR
Coagulation factor XI, sequence (P03951 388-625 limits assumed): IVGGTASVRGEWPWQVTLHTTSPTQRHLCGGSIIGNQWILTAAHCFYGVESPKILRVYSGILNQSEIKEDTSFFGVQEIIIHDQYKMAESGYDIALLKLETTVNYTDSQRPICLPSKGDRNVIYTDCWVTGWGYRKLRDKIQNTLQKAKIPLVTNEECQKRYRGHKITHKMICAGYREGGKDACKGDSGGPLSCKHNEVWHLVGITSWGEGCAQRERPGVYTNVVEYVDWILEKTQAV

Row | SMILES | EC1.5 (Plasma) [µM] | Ki (Coagulation factor XI) [nM] | other results
1 | COC(=O)Nc1ccc2c(c1)NC(=O)[C@H](C)CCC[C@H](NC(=O)/C=C/c1cc(Cl)ccc1-n1cnnn1)c1nc-2c[nH]1 | 0.39 |  | 
2 | COC(=O)Nc1ccc2c(c1)NC(=O)C[C@@H](C)CCC[C@H](NC(=O)c1c(F)cc(C)cc1F)c1nc-2c(Cl)[nH]1 | 12 | 44 | Papp A→B [1]: 1.8 ×10⁻⁶ cm/s; Papp B→A [2]: 25.1 ×10⁻⁶ cm/s; half-life [3]: 45 min
3 | COC(=O)Nc1ccc2c(c1)NC(=O)CC/C=C/C[C@H](NC(=O)/C=C/c1cc(Cl)ccc1-n1cnnn1)c1nc-2c(Cl)[nH]1 |  |  | half-life [4]: 42 min; Papp A→B [1]: < 1.5 ×10⁻⁶ cm/s; clearance [5]: 24 mL/min/kg; bioavailability [6]: 0.2%; Papp B→A [2]: 5.8 ×10⁻⁶ cm/s; Vd [7]: 0.4 L/kg; AUC [8]: 0.002 µM·h
4 | COC(=O)Nc1ccc2c(c1)NC(=O)C[C@H](C)CCC[C@H](NC(=O)/C=C/c1cc(Cl)ccc1-n1cnnn1)c1nc-2c[nH]1 | 27 |  | 
5 | COC(=O)Nc1ccc2c(c1)NC(=O)CC(C)CC[C@H](NC(=O)/C=C/c1cc(Cl)ccc1-n1cnnn1)c1nc-2c[nH]1 (single isomer, unassigned; diastereomer B) | 31 | 35 | 
6 | COC(=O)Nc1ccc2c(c1)NC(=O)CC(C)CC[C@H](NC(=O)/C=C/c1cc(Cl)ccc1-n1cnnn1)c1nc-2c[nH]1 (single isomer, unassigned; diastereomer A) | 37 | 36 | 
7 | COC(=O)Nc1ccc2c(c1)NC(=O)C[C@@H](C)/C=C/C[C@H](NC(=O)/C=C/c1cc(Cl)ccc1-n1cnnn1)c1nc-2c[nH]1 | 0.38 | 0.13 | 
8 | CC[C@@H]1CCC[C@H](NC(=O)/C=C/c2cc(Cl)ccc2-n2cnnn2)c2nc(c[nH]2)-c2ccc(NC(=O)OC)cc2NC1=O | 0.52 |  | 
9 | COC(=O)Nc1ccc2c(c1)NC(=O)C[C@@H](C)/C=C/C[C@H](NC(=O)c1c(F)cc(C)cc1F)c1nc-2c(Cl)[nH]1 | 2.7 | 12 | AUC [9]: 0.991 µM·h; clearance [10]: 6 mL/min/kg; Vd [11]: 0.3 L/kg; Papp A→B [1]: < 1.5 ×10⁻⁶ cm/s; bioavailability [12]: 16%; Papp B→A [2]: 18.9 ×10⁻⁶ cm/s; half-life [3]: 35 min; half-life [13]: 54 min
10 | COC(=O)Nc1ccc2c(c1)NC(=O)C[C@H](C)/C=C/C[C@H](NC(=O)/C=C/c1cc(Cl)ccc1-n1cnnn1)c1nc-2c[nH]1 | 0.98 | 2 | 
11 | CC[C@H]1CCC[C@H](NC(=O)/C=C/c2cc(Cl)ccc2-n2cnnn2)c2nc(c[nH]2)-c2ccc(NC(=O)OC)cc2NC1=O | 4 |  | 
12 | COC(=O)Nc1ccc2c(c1)NC(=O)C(C)CCCC[C@H](NC(=O)/C=C/c1cc(Cl)ccc1-n1cnnn1)c1nc-2c[nH]1 (single isomer, unassigned; diastereomer B) | 32 | 31 | 
13 | COC(=O)Nc1ccc2c(c1)NC(=O)C(C)CCCC[C@H](NC(=O)/C=C/c1cc(Cl)ccc1-n1cnnn1)c1nc-2c[nH]1 (single isomer, unassigned; diastereomer A) | 5.3 | 6.5 | 
14 | COC(=O)Nc1ccc2c(c1)NC(=O)CCC(C)CC[C@H](NC(=O)/C=C/c1cc(Cl)ccc1-n1cnnn1)c1nc-2c[nH]1 (single isomer, unassigned; diastereomer B) | 12 | 18 | 
15 | COC(=O)Nc1ccc2c(c1)NC(=O)C[C@@H](C)CCC[C@H](NC(=O)/C=C/c1cc(Cl)ccc1-n1cnnn1)c1nc-2c(Cl)[nH]1 | 0.57 | 0.06 | 
16 | COC(=O)Nc1ccc2c(c1)NC(=O)C[C@@H](C)CCC[C@H](NC(=O)/C=C/c1cc(Cl)ccc1-n1cnnn1)c1nc-2c[nH]1 | 1.1 |  | fraction unbound [14]: 0.02
17 | COC(=O)Nc1ccc2c(c1)NC(=O)C(C)C/C=C/C[C@H](NC(=O)/C=C/c1cc(Cl)ccc1-n1cnnn1)c1nc-2c[nH]1 (single isomer, unassigned; diastereomer B) | 1.2 | 2.7 | 
18 | COC(=O)Nc1ccc2c(c1)NC(=O)[C@H](C(C)C)CCC[C@H](NC(=O)/C=C/c1cc(Cl)ccc1-n1cnnn1)c1nc-2c[nH]1 | 1.1 | 0.14 | 
19 | COC(=O)Nc1ccc2c(c1)NC(=O)CCCCC[C@H](NC(=O)/C=C/c1cc(Cl)ccc1-n1cnnn1)c1nc-2c[nH]1 |  |  | fraction unbound [14]: 0.038
20 | COC(=O)Nc1ccc2c(c1)NC(=O)[C@@H](C)CCC[C@H](NC(=O)/C=C/c1cc(Cl)ccc1-n1cnnn1)c1nc-2c[nH]1 | 0.63 |  | 
21 | COC(=O)Nc1ccc2c(c1)NC(=O)[C@H](C)CCC[C@H](NC(=O)c1c(F)cc(C)cc1F)c1nc-2c(Cl)[nH]1 | 2 | 10 | Papp A→B [1]: < 1.5 ×10⁻⁶ cm/s; Papp B→A [2]: 11.1 ×10⁻⁶ cm/s; half-life [3]: 8 min
22 | COC(=O)Nc1ccc2c(c1)NC(=O)CC/C=C/C[C@H](NC(=O)c1c(F)cc(C)cc1F)c1nc-2c(Cl)[nH]1 | 6.6 | 16 | half-life [15]: 54 min; Papp A→B [1]: < 1.5 ×10⁻⁶ cm/s; Papp B→A [2]: 20 ×10⁻⁶ cm/s; half-life [3]: 17 min; Vd [16]: 0.4 L/kg; clearance [17]: 5.6 mL/min/kg; bioavailability [18]: 41%; AUC [19]: 2.08 µM·h
23 | COC(=O)Nc1ccc2c(c1)NC(=O)[C@@H](C(C)C)CCC[C@H](NC(=O)/C=C/c1cc(Cl)ccc1-n1cnnn1)c1nc-2c[nH]1 | 64 | 21 | 
24 | COC(=O)Nc1ccc2c(c1)NC(=O)[C@H](C)CCC[C@H](NC(=O)/C=C/c1cc(Cl)ccc1-n1cnnn1)c1nc-2c(Cl)[nH]1 | 1.2 | 0.07 | 
25 | COC(=O)Nc1ccc2c(c1)NC(=O)CCC(C)CC[C@H](NC(=O)/C=C/c1cc(Cl)ccc1-n1cnnn1)c1nc-2c[nH]1 (single isomer, unassigned; diastereomer A) | 2.5 | 5.9 | 
26 | COC(=O)Nc1ccc2c(c1)NC(=O)C(C)C/C=C/C[C@H](NC(=O)/C=C/c1cc(Cl)ccc1-n1cnnn1)c1nc-2c[nH]1 (single isomer, unassigned; diastereomer A) | 0.67 | 0.33 | 

From ChEMBL document CHEMBL4052741, “Macrocyclic inhibitors of Factor XIa: Discovery of alkyl-substituted macrocyclic amide linkers with improved potency” (Bioorg Med Chem Lett, 2017)
